The half-life is how long it takes for the measured level to halve.

The nature of data set [1]: Acute GLP toxicology, single dose, 14 days observation, rabbits. The data set is classed as in vivo. On the procedure:
Formal toxicology studies of NM404 in male rats and rabbits were performed at the Toxicology Research Center of the State University of New York at Buffalo under the direction of Dr. Paul Kostyniak. Drug vehicle and drug product were provided to Dr. Kostyniak by Dr. Raymond Counsell of the University of Michigan for testing as described in the appended synopses of Study 27 and Study 28. […] Human safety studies of unlabeled NM404 were initiated in normal male humans at a mass of 10 times the anticipated imaging dose and about 21 times the anticipated therapy dose. […] This toxicology study was performed under GLP conditions.
Subsequently, the researchers at the University of Wisconsin initiated a toxicology study of unlabeled NM404 in female rats and rabbits (Study 31 and Study 32) at the Toxicology Research Center at SUNY-Buffalo in order to expand the patient population to be studied in the NSCLC Phase 1 clinical trial. […] Human safety studies of unlabeled NM404 were initiated in normal female humans at a mass of 10 times the initially anticipated imaging dose and about 21 times the anticipated therapy dose. […] This toxicology study was performed under GLP conditions.

The subject of another data set is Cervical. The data set is described as follows: Tumor models examined with NM404 (Table 2). The data set is classed as in vivo, Transgenic mouse. The conditions noted are these: Adenocarcinoma. An excerpt:
(§1) NM404 has now been evaluated in 27 animal tumor models, including several lung, and it is clear that once the agent enters tumor cells, it reaches a metabolic dead end and becomes trapped. […] NM404 is also retained in spontaneous murine lung tumors (FIG. 13). Using ^125I-labeled NM404, the inventors have been able to image mammary and prostate tumors in mice in excess of 60 days. […] Imaging and tissue distribution studies performed in mouse models aimed at determining the uptake characteristics in a wide variety of tumor models are summarized in Table 2.
(§2) Although tumor retention can be explained by a lack of metabolic phospholipase enzymes in the tumor cell membranes, the exact mechanism of tumor cell uptake is unknown. […] The inventors are currently evaluating the selectivity of NM404 in a unique mouse tumor model developed at Wisconsin, wherein both preneoplastic hyperplasias and malignant adenocarcinomas form spontaneously in the mammary gland. […] If this initial observation is validated, then via genomic and or proteomic analysis the inventors may be able to identify a key genetic difference between malignant tumors and their non malignant predecessor cells. This could identify a completely new molecular therapeutic target that may be universal for all types of cancer.

In the next data set the test system is Pancreas c-myc/k-ras. The data set is described as follows: Tumor models examined with NM404 (Table 2). In kind it is in vivo, Transgenic mouse. Particulars: Ductal/acinar.
From the text: as §1, §2

A further data set has as its system TRAMP prostate. The data set is described as follows: Tumor models examined with NM404 (Table 2). The conditions noted are these: Adenocarcinoma. In kind it is in vivo, Transgenic mouse.
From the text: as §1, §2

The next data set deals with Retinoblastoma. The data set is described as follows: Tumor models examined with NM404 (Table 2). The data set is classed as in vivo, Transgenic mouse. Particulars: Blastoma.
From the text: as §1, §2

The subject of the next data set is TGFα Hepatoma. Description: Tumor models examined with NM404 (Table 2). The data set is classed as in vivo, Transgenic mouse.
From the text: as §1, §2

The next data set deals with Min Mouse Intestinal. Description: Tumor models examined with NM404 (Table 2). The conditions noted are these: Adenocarcinoma. The data set is classed as in vivo, Transgenic mouse.
From the text: as §1, §2

Data set [2] is classed as in vivo, human.
Data set [3] can be described thus: Acute GLP toxicology, single iv dose, 14 days observation, rats. The conditions noted are these: female rats. In kind it is in vivo.
Another data set deals with MAT LyLu cells. The data set is described as follows: Gamma camera scintigraphy in rat Dunning R3327 (MAT LyLu) prostate cancer model.
Data set [4] has as its system mammary and intestinal tumors. The data set is described as follows: Apparent therapeutic responses in Apc Min/+ mammary and intestinal tumor mice. In kind it is in vivo, Apc^Min/+ mouse. An excerpt:
During the course of mouse tumor uptake and retention studies with “imaging” doses (15-20 μCi/20 g mouse) of ^125I-labeled NM404, several apparent therapeutic responses have been observed (unpublished results). […] Some of these animals also lost all hair above larger mammary tumors at around 8 days after injection. Moreover, these mice also get intestinal tumors and usually suffer from intestinal bleeding resulting in severe anemia, which renders their feet white. Dr. Moser noted that the feet of these mice had reverted to a pink color around 5 days after a single injection of NM404. […] Another compelling example of tumor regression is illustrated in FIG. 6. Two litter mates each received SCC1 and SCC6 xenografts in their left and right flanks, respectively. One mouse received a single injection of ^125I-NM404 (20 μCi). […] These coincidental findings were reconfirmed in two separate age-matched groups each involving more than 6 mice. Although these observations with ^125I-NM404 are anecdotal at this point, they do seem to strongly indicate potential for radiotherapy applications particularly if labeled with iodine-131. Ongoing quantitative tumor uptake and retention studies in several animal tumor models will also provide sufficient data to initiate a comprehensive dosimetry analysis for this agent in order to estimate its true radiotherapeutic potential.

In data set [5] the test system is human PC-3 tumor cells in tibia. The data set is described as follows: Intratibial PC-3 bone tumor model, radioactivity scan fused with microCT. The data set is classed as in vivo, NUDE mice. Particulars: 4 days following injection. As to the method:
Following in vivo imaging of anesthetized mice, the prostate tumors were removed immediately, and imaged ex vivo on the same scanner (equipped with high resolution 1 mm collimator and 2-D acquisition and analysis software) in order to avoid tissue attenuation associated with the low energy of iodine-125 (FIG. 21). […] In an attempt to simulate bone metastases another experiment was performed wherein human PC-3 tumor cells were implanted into the tibia of immune compromised NUDE mice (n=6) according to a recent reports. Following tumor cell inoculation, mice were scanned serially by high-resolution microCT in order to monitor bone tumor development (FIG. 22). Once bone deterioration was detected, iodine-125 labeled NM404 was administered intravenously via tail vein. Mice were scanned for radioactivity and by microCT 4 days post NM404 administration. Radioactivity scans were fused with microCT scans (FIG. 23) to corroborate NM404 radioactivity and tumor location.

From the text for MAT LyLu cells: The MatLyLu (Dunning R3327 rat) model, a rat prostate tumor line, was used specifically to screen 9 specific analogs prior to entering them into control for dosimetry and tumor-bearing animals for determining tumor/background ratios.
In order to expedite the screening process and minimize the number of tumor bearing animals utilized in multiple time point tissue distribution studies, new radioiodinated homologs were imaged by gamma camera scintigraphy in the rat Dunning R3337 (MAT LyLu strain) prostate cancer model. […] Gamma camera images were obtained at multiple time points including 24 and 48 hours post injection.
The new PLE analogs were synthesized and radiolabeled with ^125I for initial image analysis in Copenhagen rats bearing Dunning R3327 prostate tumors.

Consider `C[N+](C)(C)CCOP(=O)([O-])OCCCCCCCCCCCCCCCCCCc1ccc(I)cc1` [NM-404, 18-(4-iodophenyl)-octadecylphosphocholine], for which the toxic effects entry in data set [1] (female rabbits, 0.04 mg/kg (Study 32)) is “no significant toxic effects were noted”; in data set [1] (male rabbits, 4 mg/kg (Study 28)), “no significant toxic effects were noted”; in [3] (0.04 mg/kg (Study 31)) it was “no significant toxic effects were noted”. Besides, the adverse effects entry in data set [1] (male and female rabbits) is recorded as “no adverse effects attributable to the test article were noted”; in [3], “no adverse effects attributable to the test article were noted”. The acute toxicity entry in data set [1] (unlabeled, 1200 times the anticipated imaging mass dose) was “no acute toxicities were found”. For the same compound, the “NM404 Tumor Localization” value with Cervical, in the data set with Pancreas c-myc/k-ras, with TRAMP prostate, with Retinoblastoma, with TGFα Hepatoma and in the data set with Min Mouse Intestinal was “Yes (Localization defined as >5% injected dose per gram tumor basis based on tissue distribution data)” each time. In addition, the half-life in data set [2] (human, plasma, intravenous, 0.3 μg/kg, average, read-out: plasma elimination half life time (converted)) was 113 h. In addition, the agent cleared renally in data set [2] (within 4 days of iv injection) is given as 4%. The “liver activity and tumor retention in initial image screen” value with MAT LyLu cells (125I-labeled) was “much lower liver activity than its predecessor NM324 but also maintained prolonged tumor retention”. Also, the “tumor uptake and liver/abdominal radioactivity by gamma camera imaging” value in the data set with MAT LyLu cells (tumor-bearing rats, 24 and 48 hours post injection) is “readily visualized”.
With `C[N+](C)(C)CCOP(=O)([O-])OCCCCCCCCCCCCCCCCCCc1ccc([125I])cc1` [Compound I-125-NM404], in data set [4] (after 21 days, both intestinal models), the “survival versus untreated litter mates” value was “easily outlived their untreated litter mates”. The “intestinal tumors remaining at dissection” value in data set [4] (single injection) is “only a very few, if any”. The mammary tumor growth entry in [4] (single iv injection, 15-20 μCi/20 g mouse) is recorded as “tumor growth remains static”. For the same compound, the “correlation of radioactivity with tibial tumor” value in [5] is reported as “Focal NM404 activity correlates well with tibial PC3 tumor”.

The record behind these values is patent US9579406B2, “Phospholipid ether analogs as agents for detecting and locating cancer, and methods thereof” (Cellectar, Inc., priority 2004, dated 2017).
